In US7820722B2, “Permeation enhancers” (Merrion Research III Limited, priority 2001, dated 2010):
Strand notation (5' to 3'): a small letter for the sugar, then the base; units joined by * are phosphorothioate-linked, units joined directly phosphodiester-linked; [ ] holds rarer units or linkages, { } end groups; capitals alone tell only the bases. e = 2'-O-(2-methoxyethyl) (MOE); [5mC] = 5-methylcytosine; d = 2'-deoxy (DNA)

Key:
[1] = Bioavailability of antisense oligonucleotide after intra-jejunal dosing through a catheter, plasma level by anion-exchange chromatography (Example 3); type: in vivo, male rhesus monkeys; details: rhesus monkey, po
Description: The compositions were compared by administering them in solution form through a catheter to test subjects. A jejunal catheter is surgically implanted in six male rhesus monkeys (3-5 years, 3-5 Kg) under anesthesia. The catheters are attached to a subcutaneous access port to allow dosing through the port into the jejunum. The animals are allowed to recover at least 7 days prior to dosing. […] The antisense oligonucleotide is detected by anion-exchange chromatography. The formulations and the measurements of bioavailability, Tmax and plasma peak of antisense oligonucleotide after administration of formulations are described in the chart below.

[2] = Solubility of the enhancer system in phosphate buffer saline

Solubility in phosphate buffer saline [2] | Compound | permeability without any permeation enhancer systems [1]
– | antisense oligonucleotide: 5-10-5 MOE gapmer phosphorothioate, 5-methylcytosines, targets human TNF-α; GCTGATTAGAGAGAGGTCCC (antisense eG*e[5mC]*eT*eG*eA*dT*dT*dA*dG*dA*dG*dA*dG*dA*dG*eG*eT*e[5mC]*e[5mC]*e[5mC]) | poor permeability
not fully soluble | CCCCCCCCCCC(CCCCCCCC)C(=O)[O-].[Na+] (centres unmarked) [sodium 2-n-octyl-dodecanoate] | –
